Test results as given in PMC8800111 (The Journal of Biological Chemistry, 2021).

Tests used:
Format in all cases: cell-based
[1] = target: proteins of U3A human fibrosarcoma cells (4462 proteins detected) (Homo sapiens, UniProt O00505); settings: protein KPNA3; U3A cells
[2] = target: proteins of U3A human fibrosarcoma cells (4462 proteins detected) (Homo sapiens, UniProt O43427); settings: protein FIBP; soluble abundance after heat, U3A cells
[3] = target: proteins of U3A human fibrosarcoma cells (4462 proteins detected) (Homo sapiens, UniProt O75347); settings: protein TBCA, U3A cells
[4] = target: proteins of U3A human fibrosarcoma cells (4462 proteins detected) (Homo sapiens, UniProt O76021); settings: protein RSL1D1; soluble abundance after heat, U3A cells
[5] = target: proteins of U3A human fibrosarcoma cells (4462 proteins detected) (Homo sapiens, UniProt O94992); settings: protein HEXIM1, U3A cells
[6] = target: proteins of U3A human fibrosarcoma cells (4462 proteins detected) (Homo sapiens, UniProt O95218); settings: protein ZRANB2, U3A cells
[7] = target: proteins of U3A human fibrosarcoma cells (4462 proteins detected) (Homo sapiens, UniProt O95292); settings: protein VAPB; U3A cells
proteins of U3A human fibrosarcoma cells (4462 proteins detected) (Homo sapiens, UniProt O95292), sequence (O95292 whole entry): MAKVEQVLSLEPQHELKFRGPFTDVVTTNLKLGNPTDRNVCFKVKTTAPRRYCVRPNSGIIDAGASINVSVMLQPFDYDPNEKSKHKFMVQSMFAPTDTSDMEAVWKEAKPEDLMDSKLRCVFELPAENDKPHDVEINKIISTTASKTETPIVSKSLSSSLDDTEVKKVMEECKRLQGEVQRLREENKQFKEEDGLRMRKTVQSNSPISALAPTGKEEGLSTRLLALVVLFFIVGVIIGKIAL

[8] = target: proteins of U3A human fibrosarcoma cells (4462 proteins detected) (Homo sapiens, UniProt P04183); settings: protein TK1; U3A cells
[9] = target: proteins of U3A human fibrosarcoma cells (4462 proteins detected) (Homo sapiens, UniProt P06756); settings: protein ITGAV; soluble abundance after heat, U3A cells
[10] = target: proteins of U3A human fibrosarcoma cells (4462 proteins detected) (Homo sapiens, UniProt P13861); settings: protein PRKAR2A; soluble abundance after heat, U3A cells
proteins of U3A human fibrosarcoma cells (4462 proteins detected) (Homo sapiens, UniProt P13861), sequence (P13861 whole entry): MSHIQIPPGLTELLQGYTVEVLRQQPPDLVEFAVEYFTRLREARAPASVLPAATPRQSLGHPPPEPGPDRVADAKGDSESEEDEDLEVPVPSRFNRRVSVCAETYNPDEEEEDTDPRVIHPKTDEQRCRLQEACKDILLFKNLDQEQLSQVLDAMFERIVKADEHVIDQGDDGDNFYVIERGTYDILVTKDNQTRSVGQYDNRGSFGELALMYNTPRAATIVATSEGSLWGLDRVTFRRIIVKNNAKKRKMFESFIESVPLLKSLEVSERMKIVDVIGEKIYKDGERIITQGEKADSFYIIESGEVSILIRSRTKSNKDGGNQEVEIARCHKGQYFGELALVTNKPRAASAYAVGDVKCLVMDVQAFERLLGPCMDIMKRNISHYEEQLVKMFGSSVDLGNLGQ

[11] = target: proteins of U3A human fibrosarcoma cells (4462 proteins detected) (Homo sapiens, UniProt P28799); settings: protein GRN; U3A cells
proteins of U3A human fibrosarcoma cells (4462 proteins detected) (Homo sapiens, UniProt P28799), sequence (P28799 18-593): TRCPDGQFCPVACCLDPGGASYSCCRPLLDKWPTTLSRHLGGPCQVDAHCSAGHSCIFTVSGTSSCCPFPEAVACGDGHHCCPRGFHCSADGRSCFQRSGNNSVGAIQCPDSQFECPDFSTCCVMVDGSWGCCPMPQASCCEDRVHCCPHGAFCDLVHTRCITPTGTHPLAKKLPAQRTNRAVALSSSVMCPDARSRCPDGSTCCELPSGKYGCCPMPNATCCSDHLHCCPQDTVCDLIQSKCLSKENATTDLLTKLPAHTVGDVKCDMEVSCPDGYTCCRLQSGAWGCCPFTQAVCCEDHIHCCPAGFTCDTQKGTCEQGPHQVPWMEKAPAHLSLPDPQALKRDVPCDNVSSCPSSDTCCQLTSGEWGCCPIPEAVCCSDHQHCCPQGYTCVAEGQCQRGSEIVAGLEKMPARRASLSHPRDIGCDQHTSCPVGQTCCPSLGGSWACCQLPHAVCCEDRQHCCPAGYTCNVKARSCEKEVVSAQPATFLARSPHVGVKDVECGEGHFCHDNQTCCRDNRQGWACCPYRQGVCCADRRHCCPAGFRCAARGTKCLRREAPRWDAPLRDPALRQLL

[12] = target: proteins of U3A human fibrosarcoma cells (4462 proteins detected) (Homo sapiens, UniProt P41229); settings: protein KDM5C; U3A cells
[13] = target: proteins of U3A human fibrosarcoma cells (4462 proteins detected) (Homo sapiens, UniProt P49588); settings: protein AARS, U3A cells
proteins of U3A human fibrosarcoma cells (4462 proteins detected) (Homo sapiens, UniProt P49588), sequence (P49588 whole entry): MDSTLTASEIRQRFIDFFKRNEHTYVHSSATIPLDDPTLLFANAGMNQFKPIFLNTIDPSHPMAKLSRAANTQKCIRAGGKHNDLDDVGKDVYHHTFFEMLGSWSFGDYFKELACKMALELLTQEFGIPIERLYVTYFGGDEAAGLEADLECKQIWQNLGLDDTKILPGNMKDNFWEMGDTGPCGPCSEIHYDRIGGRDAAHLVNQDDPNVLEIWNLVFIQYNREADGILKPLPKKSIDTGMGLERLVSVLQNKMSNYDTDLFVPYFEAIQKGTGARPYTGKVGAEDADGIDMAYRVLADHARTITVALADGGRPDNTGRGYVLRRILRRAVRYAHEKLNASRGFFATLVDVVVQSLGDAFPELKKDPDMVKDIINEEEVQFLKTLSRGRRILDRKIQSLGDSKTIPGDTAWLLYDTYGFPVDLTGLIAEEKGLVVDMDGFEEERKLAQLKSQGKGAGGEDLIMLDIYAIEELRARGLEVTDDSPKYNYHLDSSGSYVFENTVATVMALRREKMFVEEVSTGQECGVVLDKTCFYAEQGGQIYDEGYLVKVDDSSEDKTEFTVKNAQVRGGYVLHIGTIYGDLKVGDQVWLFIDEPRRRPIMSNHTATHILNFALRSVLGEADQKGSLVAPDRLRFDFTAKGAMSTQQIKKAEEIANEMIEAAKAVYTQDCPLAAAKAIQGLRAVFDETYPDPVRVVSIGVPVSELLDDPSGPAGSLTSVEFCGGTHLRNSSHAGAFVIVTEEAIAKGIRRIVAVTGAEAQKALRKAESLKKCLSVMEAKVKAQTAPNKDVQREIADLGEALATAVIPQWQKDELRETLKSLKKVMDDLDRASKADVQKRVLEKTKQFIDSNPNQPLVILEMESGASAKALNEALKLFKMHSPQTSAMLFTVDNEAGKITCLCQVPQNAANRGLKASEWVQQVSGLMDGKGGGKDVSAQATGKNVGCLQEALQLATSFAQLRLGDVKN

[14] = target: proteins of U3A human fibrosarcoma cells (4462 proteins detected) (Homo sapiens, UniProt P62857); settings: protein RPS28, U3A cells
[15] = target: proteins of U3A human fibrosarcoma cells (4462 proteins detected) (Homo sapiens, UniProt P62906); settings: protein RPL10A; U3A cells
[16] = target: proteins of U3A human fibrosarcoma cells (4462 proteins detected) (Homo sapiens, UniProt Q07020); settings: protein RPL18; soluble abundance after heat, U3A cells
[17] = target: proteins of U3A human fibrosarcoma cells (4462 proteins detected) (Homo sapiens, UniProt Q13330); settings: protein MTA1; U3A cells
[18] = target: proteins of U3A human fibrosarcoma cells (4462 proteins detected) (Homo sapiens, UniProt Q15599); settings: protein SLC9A3R2, U3A cells
[19] = target: proteins of U3A human fibrosarcoma cells (4462 proteins detected) (Homo sapiens, UniProt Q3B726); settings: protein TWISTNB; U3A cells
proteins of U3A human fibrosarcoma cells (4462 proteins detected) (Homo sapiens, UniProt Q3B726), sequence (Q3B726 whole entry): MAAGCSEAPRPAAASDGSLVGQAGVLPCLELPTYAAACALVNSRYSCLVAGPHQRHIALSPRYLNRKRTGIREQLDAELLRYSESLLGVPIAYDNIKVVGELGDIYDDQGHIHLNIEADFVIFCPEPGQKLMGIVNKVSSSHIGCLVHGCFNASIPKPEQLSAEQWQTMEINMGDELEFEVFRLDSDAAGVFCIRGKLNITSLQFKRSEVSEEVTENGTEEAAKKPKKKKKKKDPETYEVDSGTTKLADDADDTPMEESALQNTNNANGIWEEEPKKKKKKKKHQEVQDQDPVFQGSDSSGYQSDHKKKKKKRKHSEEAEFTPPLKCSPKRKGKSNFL

[20] = target: proteins of U3A human fibrosarcoma cells (4462 proteins detected) (Homo sapiens, UniProt Q495W5); settings: protein FUT11; U3A cells
proteins of U3A human fibrosarcoma cells (4462 proteins detected) (Homo sapiens, UniProt Q495W5), sequence (Q495W5 whole entry): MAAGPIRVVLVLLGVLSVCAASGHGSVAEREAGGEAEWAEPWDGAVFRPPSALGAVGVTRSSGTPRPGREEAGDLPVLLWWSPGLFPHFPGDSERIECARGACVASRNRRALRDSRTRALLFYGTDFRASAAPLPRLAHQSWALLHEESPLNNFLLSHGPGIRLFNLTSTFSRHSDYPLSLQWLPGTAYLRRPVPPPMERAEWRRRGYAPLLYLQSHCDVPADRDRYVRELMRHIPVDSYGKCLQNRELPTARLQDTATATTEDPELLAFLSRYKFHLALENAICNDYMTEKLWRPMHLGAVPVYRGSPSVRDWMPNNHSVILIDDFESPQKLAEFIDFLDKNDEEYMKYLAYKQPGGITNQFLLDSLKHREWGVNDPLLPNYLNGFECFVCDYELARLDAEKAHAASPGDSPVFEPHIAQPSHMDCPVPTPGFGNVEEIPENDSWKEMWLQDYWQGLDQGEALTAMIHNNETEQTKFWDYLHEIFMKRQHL

[21] = target: proteins of U3A human fibrosarcoma cells (4462 proteins detected) (Homo sapiens, UniProt Q4J6C6); settings: protein PREPL, U3A cells
[22] = target: proteins of U3A human fibrosarcoma cells (4462 proteins detected) (Homo sapiens, UniProt Q76FK4); settings: protein NOL8; soluble abundance after heat, U3A cells
[23] = target: proteins of U3A human fibrosarcoma cells (4462 proteins detected) (Homo sapiens, UniProt Q8IXK0); settings: protein PHC2; U3A cells
[24] = target: proteins of U3A human fibrosarcoma cells (4462 proteins detected) (Homo sapiens, UniProt Q9BUJ2); settings: protein HNRNPUL1, U3A cells
proteins of U3A human fibrosarcoma cells (4462 proteins detected) (Homo sapiens, UniProt Q9BUJ2), sequence (Q9BUJ2 whole entry): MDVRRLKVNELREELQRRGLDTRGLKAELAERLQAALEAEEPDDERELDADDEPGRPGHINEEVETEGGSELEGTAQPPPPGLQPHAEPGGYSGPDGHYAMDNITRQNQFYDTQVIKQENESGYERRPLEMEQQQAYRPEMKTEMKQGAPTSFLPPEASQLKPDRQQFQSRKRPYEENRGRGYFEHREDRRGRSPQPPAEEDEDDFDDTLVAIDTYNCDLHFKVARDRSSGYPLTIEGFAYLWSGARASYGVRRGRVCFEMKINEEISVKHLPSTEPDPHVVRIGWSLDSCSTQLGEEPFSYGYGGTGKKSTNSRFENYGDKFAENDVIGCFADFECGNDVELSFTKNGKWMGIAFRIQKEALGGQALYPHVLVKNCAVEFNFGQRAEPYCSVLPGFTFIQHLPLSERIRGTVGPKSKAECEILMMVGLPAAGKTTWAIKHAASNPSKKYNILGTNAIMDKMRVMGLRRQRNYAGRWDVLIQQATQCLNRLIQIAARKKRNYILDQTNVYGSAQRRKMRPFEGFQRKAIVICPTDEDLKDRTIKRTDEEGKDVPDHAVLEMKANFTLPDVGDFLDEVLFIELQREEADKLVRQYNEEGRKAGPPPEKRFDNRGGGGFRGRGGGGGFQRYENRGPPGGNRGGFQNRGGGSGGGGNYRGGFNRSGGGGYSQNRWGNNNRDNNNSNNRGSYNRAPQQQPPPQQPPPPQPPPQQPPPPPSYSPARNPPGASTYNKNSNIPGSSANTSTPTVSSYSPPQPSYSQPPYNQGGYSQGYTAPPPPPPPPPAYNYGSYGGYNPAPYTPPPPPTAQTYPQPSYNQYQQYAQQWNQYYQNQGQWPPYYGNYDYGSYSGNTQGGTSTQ

[25] = target: proteins of U3A human fibrosarcoma cells (4462 proteins detected) (Homo sapiens, UniProt Q9BWU0); settings: protein SLC4A1AP, U3A cells
[26] = target: proteins of U3A human fibrosarcoma cells (4462 proteins detected) (Homo sapiens, UniProt Q9H3H3); settings: protein C11orf68; soluble abundance after heat, U3A cells
[27] = target: proteins of U3A human fibrosarcoma cells (4462 proteins detected) (Homo sapiens, UniProt Q9H7X7); settings: protein IFT22; U3A, 10 μM, 2 h
[28] = target: proteins of U3A human fibrosarcoma cells (4462 proteins detected) (Homo sapiens, UniProt Q9HAN9); settings: protein NMNAT1, U3A cells
proteins of U3A human fibrosarcoma cells (4462 proteins detected) (Homo sapiens, UniProt Q9HAN9), sequence (Q9HAN9 whole entry): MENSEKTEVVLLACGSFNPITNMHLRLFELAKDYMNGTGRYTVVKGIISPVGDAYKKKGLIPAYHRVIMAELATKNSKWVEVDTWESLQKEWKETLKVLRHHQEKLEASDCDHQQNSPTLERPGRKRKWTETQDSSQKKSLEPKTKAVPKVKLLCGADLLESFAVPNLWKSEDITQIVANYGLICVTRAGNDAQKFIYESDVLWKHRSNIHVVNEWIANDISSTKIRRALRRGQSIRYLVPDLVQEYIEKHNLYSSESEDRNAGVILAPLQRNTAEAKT

[29] = target: proteins of U3A human fibrosarcoma cells (4462 proteins detected) (Homo sapiens, UniProt Q9NP77); settings: protein SSU72, U3A cells
proteins of U3A human fibrosarcoma cells (4462 proteins detected) (Homo sapiens, UniProt Q9NP77), sequence (Q9NP77 whole entry): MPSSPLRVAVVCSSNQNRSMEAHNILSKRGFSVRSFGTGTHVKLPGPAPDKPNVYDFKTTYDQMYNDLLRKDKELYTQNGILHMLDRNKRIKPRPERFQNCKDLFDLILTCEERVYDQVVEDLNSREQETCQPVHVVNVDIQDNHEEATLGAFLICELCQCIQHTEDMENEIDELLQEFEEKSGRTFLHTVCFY

[30] = target: proteins of U3A human fibrosarcoma cells (4462 proteins detected) (Homo sapiens, UniProt Q9UFW8); settings: protein CGGBP1; soluble abundance after heat, U3A cells

proteins of U3A human fibrosarcoma cells (4462 proteins detected) (Homo sapiens, UniProt O00505), sequence (O00505 whole entry): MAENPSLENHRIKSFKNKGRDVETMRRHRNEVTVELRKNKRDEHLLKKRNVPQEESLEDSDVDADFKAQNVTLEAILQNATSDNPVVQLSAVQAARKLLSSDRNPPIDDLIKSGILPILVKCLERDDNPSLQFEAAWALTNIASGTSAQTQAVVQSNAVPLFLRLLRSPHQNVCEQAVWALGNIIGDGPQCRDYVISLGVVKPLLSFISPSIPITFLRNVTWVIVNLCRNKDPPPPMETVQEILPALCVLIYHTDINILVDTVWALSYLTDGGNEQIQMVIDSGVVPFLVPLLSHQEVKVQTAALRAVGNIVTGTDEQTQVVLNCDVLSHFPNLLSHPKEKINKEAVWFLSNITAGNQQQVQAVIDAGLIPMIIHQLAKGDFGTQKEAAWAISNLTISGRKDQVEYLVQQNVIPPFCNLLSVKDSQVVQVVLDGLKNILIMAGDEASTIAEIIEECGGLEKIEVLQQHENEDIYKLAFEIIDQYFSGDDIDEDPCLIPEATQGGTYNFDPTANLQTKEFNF

## CCc1nc(N)nc(N)c1-c1ccc(Cl)cc1 [pyrimethamine]
[1]
  Log2 (PYR/DMSO): 0.18
[2]
  Log2 (PYR/DMSO): 0.14
[3]
  Log2 (PYR/DMSO): -0.04
[4]
  Log2 (PYR/DMSO): 0.14
[5]
  Log2 (PYR/DMSO): -0.04
[6]
  Log2 (PYR/DMSO): -0.04
[7]
  Log2 (PYR/DMSO): 0.19
[8]
  Log2 (PYR/DMSO): 0.19
[9]
  Log2 (PYR/DMSO): 0.14
[10]
  Log2 (PYR/DMSO): 0.14
[11]
  Log2 (PYR/DMSO): 0.21
[12]
  Log2 (PYR/DMSO): 0.18
[13]
  Log2 (PYR/DMSO): -0.04
[14]
  Log2 (PYR/DMSO): -0.05
[15]
  Log2 (PYR/DMSO): 0.17
[16]
  Log2 (PYR/DMSO): 0.15
[17]
  Log2 (PYR/DMSO): 0.16
[18]
  Log2 (PYR/DMSO): -0.05
[19]
  Log2 (PYR/DMSO): 0.16
[20]
  Log2 (PYR/DMSO): 0.17
[21]
  Log2 (PYR/DMSO): -0.04
[22]
  Log2 (PYR/DMSO): 0.13
[23]
  Log2 (PYR/DMSO): 0.16
[24]
  Log2 (PYR/DMSO): -0.04
[25]
  Log2 (PYR/DMSO): -0.04
[26]
  Log2 (PYR/DMSO): 0.14
[27]
  Log2 (PYR/DMSO), IFT22: -0.16
[28]
  Log2 (PYR/DMSO): -0.04
[29]
  Log2 (PYR/DMSO): -0.04
[30]
  Log2 (PYR/DMSO): 0.14
